Measurements: patent publication US11064699B2, “Condensed heterocyclic compound or salt thereof, agricultural and horticultural insecticide comprising the compound or the salt, and method for using the insecticide” (Nihon Nohyaku Co., Ltd., priority 2017, dated 2021)

Legend:
Plutella xylostella = assay: Insecticidal test on Plutella xylostella (dip of Chinese cabbage seedlings with laid eggs); type: in vivo; details: 144 h, seedlings with laid eggs dipped about 30 seconds, 25° C., 6 days after dip treatment, criteria of Test Example 2, read-out: insecticidal efficacy (corrected mortality rate), activity level
Source text: Insecticidal Test on Plutella xylostella
Adults of Plutella xylostella were released onto Chinese cabbage seedlings and allowed to lay eggs thereon. At 2 days after the release of the adults, the Chinese cabbage seedlings with laid eggs were dipped for about 30 seconds in agrochemical dispersions diluted to 500 ppm, each of which contained a different condensed heterocyclic compound represented by the general formula (1) of the present invention as an active ingredient. After air-dried, the seedlings were kept in a thermostatic chamber at 25° C. At 6 days after the dip treatment, the number of hatched larvae per plot was counted, the mortality rate was calculated according to the formula shown below, and the insecticidal efficacy was evaluated according to the criteria of Test Example 2. This test was conducted in triplicate using 10 adults of Plutella xylostella per plot. Corrected mortality rate (%)=100×(Number of hatched larvae in a non-treatment plot−Number of hatched larvae in a treatment plot)/Number of hatched larvae in a non-treatment plot [Math. 3]

Laodelphax striatellus = assay: Insecticidal test on Laodelphax striatellus (rice seedling dip); type: in vivo; details: 192 h, rice seedlings dipped 30 seconds, 3rd-instar larvae, 8 days after inoculation, read-out: insecticidal efficacy (corrected mortality rate), activity level
Source text: Insecticidal Test on Laodelphax striatellus
The condensed heterocyclic compounds represented by the general formula (1) of the present invention or salts thereof were separately dispersed in water and diluted to 500 ppm. Rice plant seedlings (variety: Nihonbare) were dipped in the agrochemical dispersions for 30 seconds. After air-dried, each seedling was put into a separate glass test tube and inoculated with ten 3rd-instar larvae of Laodelphax striatellus, and then the glass test tubes were capped with cotton plugs. At 8 days after the inoculation, the numbers of surviving larvae and dead larvae were counted, the corrected mortality rate was calculated according to the formula shown below, and the insecticidal efficacy was evaluated according to the criteria shown below. Corrected mortality rate (%)=100×(Survival rate in a non-treatment plot−Survival rate in a treatment plot)/Survival rate in a non-treatment plot [Math. 2] Corrected Mortality Rate A: the corrected mortality rate is 100%. B: the corrected mortality rate is 90 to 99%. C: the corrected mortality rate is 80 to 89%. D: the corrected mortality rate is 50 to 79%.

| SMILES | mortality at 500 ppm (Plutella xylostella) [%] | mortality at 500 ppm (Laodelphax striatellus) [%] |
| --- | --- | --- |
| CCS(=O)(=O)c1cc(-c2cccc(C(F)(F)F)c2)cnc1-c1nnc2cc(C(F)(F)F)ncn12 [Compound 2-36, 3-(3-(ethylsulfonyl)-5-(3-(trifluoromethyl)phenyl)pyridin-2-yl)-(7-trifluoromethyl)-[1,2,4]Triazolo[4,3-c]Pyrimidine] | 100 | 100 |
| CCS(=O)(=O)c1cc2ccc(C(F)(F)F)cc2nc1-c1nnc2cc(C(F)(F)C(F)(F)F)ncn12 [Compound 4-27, 3-(ethylsulfonyl)-2-(7-pentafluoroethyl)-[1,2,4]triazolo[4,3-c]pyrimidin-3-yl-7-(trifluoromethyl) quinoline] | 100 | 100 |
